Biological target: Fibrinogen-D fragment
Assay: Isothermal titration calorimetry (VP-ITC) of Coa peptides with Fg-D fragment
Set-up: species or system human
Details: one-binding site model, 10 μM Fg-D, read-out: dissociation constant (KD) to Fg-D
Method: Binding isotherms for the interaction of Fg-D with Coa peptide sCoa-RI (FIG. 14A), sCoa-R13 (FIG. 14B) and sCoa-RV (FIG. 14C) were generated by titrating the peptides (˜200 μM) into an ITC cell containing 10 μM Fg-D. The top panels show heat difference upon injection of coa peptides, and the lower panels show integrated heat of injections. The data were fitted to a one-binding site model (bottom panels), and binding affinities are expressed as dissociation constants (KD) or the reciprocal of the association constants determined by Microcal Origin software. N represents the binding ratio. To generate more quantitative binding data for the Coa peptide Fg interaction isothermal titration calorimetry and titrated the Coa peptides into a solution containing a fixed concentration of Fg-D fragments was used.
Isothermal titration calorimetry—The interaction between Coa peptides and the soluble, isolated Fibrinogen-D fragment was further characterized by isothermal titration calorimetry (ITC) using a VP-ITC microcalorimeter. The Fibrinogen-D fragment used in these studies was generated by digesting full length Fibrinogen with plasmin for 4 h and fractionating the digestion products by gel filtration chromatography. The ITC cell contained 10 μM Fibrinogen-D fragments and the syringe contained 150-200 μM Coa peptides in TBS (25 mM Tris, 3.0 mM KCl and 140 mM NaCl, pH 7.4). […]

Fibrinogen-D fragment, sequence (P02671 130-216 limits assumed): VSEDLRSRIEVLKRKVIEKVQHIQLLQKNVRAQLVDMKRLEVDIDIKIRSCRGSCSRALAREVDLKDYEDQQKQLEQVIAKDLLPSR
Fibrinogen-D fragment, sequence (P02675 164-491 limits assumed, further chain): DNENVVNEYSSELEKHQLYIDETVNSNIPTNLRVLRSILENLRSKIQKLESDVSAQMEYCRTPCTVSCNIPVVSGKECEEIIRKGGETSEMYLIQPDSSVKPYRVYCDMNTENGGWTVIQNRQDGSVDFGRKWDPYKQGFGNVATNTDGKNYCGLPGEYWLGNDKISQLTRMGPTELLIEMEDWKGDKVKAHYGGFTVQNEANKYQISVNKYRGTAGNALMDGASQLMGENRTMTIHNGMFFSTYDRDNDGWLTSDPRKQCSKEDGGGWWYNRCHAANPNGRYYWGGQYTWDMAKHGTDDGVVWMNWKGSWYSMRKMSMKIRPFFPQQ
Fibrinogen-D fragment, sequence (P02679 114-432 limits assumed, further chain): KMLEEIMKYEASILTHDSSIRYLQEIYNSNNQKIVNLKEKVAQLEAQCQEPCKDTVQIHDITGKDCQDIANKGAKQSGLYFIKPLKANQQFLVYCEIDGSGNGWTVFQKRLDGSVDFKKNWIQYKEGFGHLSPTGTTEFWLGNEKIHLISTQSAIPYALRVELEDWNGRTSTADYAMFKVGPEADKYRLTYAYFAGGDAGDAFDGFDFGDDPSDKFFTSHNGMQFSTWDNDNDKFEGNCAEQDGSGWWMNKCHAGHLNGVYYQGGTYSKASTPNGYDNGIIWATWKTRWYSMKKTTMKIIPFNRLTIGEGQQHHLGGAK

**Q.** Which Kd does the source give for “sCoa-RI: synthetic peptide, first 27 residues of repeat region, Coa 506-532 (ETNAYNVTTHANGQVSYGARPTYKKPS)” here?
**A.** 88 nM

— US11407819B2, “Compositions and use of a fibrinogen binding motif present in EFB and COA for therapeutics and vaccines against Staphylococcus aureus” (priority 2013, dated 2022)
